Test results reported in patent US12357618B2, “Rapamycin (RAPA) self-microemulsifying injection and preparation method and use thereof” (priority 2022, dated 2025).

Test: Solubility of RAPA in the drug solvent of the stock solution
Type: physicochemical
Conditions: organic solvent or mixture; drug solvent of two or more solvents (absolute ethanol and latent solvent)
Description: In the RAPA self-microemulsifying injection of the present disclosure, the drug solvent includes absolute ethanol and a latent solvent, and the latent solvent is one or more selected from the group consisting of propylene glycol (PG), polyethylene glycol (PEG) 300, and PEG 400. The drug solvent of the present disclosure is a mixed solvent of two or more solvents in different proportions to dissolve RAPA, which can greatly improve the solubility of RAPA.

- solubility: ≤ 60 mg/mL
Compound: CO[C@H]1C[C@@H]2CC[C@@H](C)[C@@](O)(O2)C(=O)C(=O)N2CCCC[C@H]2C(=O)O[C@H]([C@H](C)C[C@@H]2CC[C@@H](O)[C@H](OC)C2)CC(=O)[C@H](C)/C=C(\C)[C@@H](O)[C@@H](OC)C(=O)[C@H](C)C[C@H](C)/C=C/C=C/C=C/1C [RAPA, rapamycin]
